± gives the standard deviation.
How the values were obtained:
[1] = tested on: Plasmodium falciparum 3D7; assay: EC50 growth inhibition (60 h, SYBR Green); conditions: stage: ring-stage start
[2] = tested on: Toxoplasma gondii RH tachyzoites; assay: % growth inhibition vs DMSO (48 h luciferase); higher = more inhibition; conditions: 10 µM
[3] = target: Toxoplasma gondii RH tachyzoites; assay: EC50 growth inhibition (48 h luciferase)
[4] = tested on: Plasmodium falciparum 3D7; assay: % inhibition of schizont-to-ring transition vs DMSO; higher = more inhibition
Summary of the method: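 Schizont-to-ring transition inhibition is the formation of new rings relative to vehicle controls. Tightly synchronised P. falciparum schizonts at about 40–42 hours post-invasion (1% parasitemia, 2.5% hematocrit, AlbuMAX-supplemented RPMI) were treated with compound at 1, 3 or 10 µM, alongside vehicle and positive controls. After glutaraldehyde fixation, Triton permeabilisation and Hoechst 33342 staining, at least 100,000 events were counted by flow cytometry, and values are the mean of three experiments.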
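Throughout, for % growth inhibition vs DMSO (48 h luciferase): tested in triplicate wells of 96-well plates on confluent HFF monolayers, with 1% DMSO wells as negative control in four replicates.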

SMILES | EC50 growth inhibition [1] | % growth inhibition [2] | EC50 growth inhibition [3] | % inhibition of schizont-to-ring transition ([4]; 1 µM) | % inhibition of schizont-to-ring transition ([4]; 3 µM) | % inhibition of schizont-to-ring transition ([4]; 10 µM)
Cc1ccnc(NC(c2cccc(OCc3ccccc3)c2)c2ccc3cccnc3c2O)c1 (centres undefined) | 886 nM | 98.51 ± 0.34% | 786 nM | 17.5% | 41.1% | 62.9%
CCCCCCn1c(=N)n(CC(O)COc2cccc(C)c2)c2ccccc21 (centres undefined) | 1130 nM | 99.65 ± 0.38% | 2090 nM | 7.26% | 18.9% | 72.6%
O=C(Nc1ccc(Cl)c(Cl)c1)Nc1ccc(Cl)c(Cl)c1 | 7140 nM | 100.5 ± 0.22% | 196 nM | 15.3% | 29.9% | 72.5%
CC1CC2=C(CC1CNCCCN(C)C)C(C)(C)CCC2 (centres undefined) | 618 nM | 99.59 ± 0.27% | 3170 nM | 9.39% | 52.2% | 73.9%
OC(CNCc1ccccc1)Cn1c2ccccc2c2ccccc21 (centres undefined) | 2200 nM | 48.3 ± 2% | 286 nM | 37.8% | 43% | 65.5%
Cc1sc(NC(=O)c2ccccc2)c(C(c2cccs2)N2CCN(c3ccccc3)CC2)c1C (centres undefined) | 1930 nM | 88.7 ± 5.2% | 550 nM | 5.65% | 10.7% | 36.5%
COc1ccc(C2c3ccc4ccccc4c3Oc3ncn(CCCN(C)C)c(=N)c32)cc1 (centres undefined) | 319 nM | 100.2 ± 0.12% | 2650 nM | 22.6% | 63.4% | 77.4%
CCOc1ccc2nc(C)cc(Nc3ccc(Br)cc3)c2c1 | 180 nM | 99.53 ± 0.2% | 4410 nM | 28% | 45.8% | 44.9%
CN(C)CCCNc1c2ccccc2nc2ccccc12 | 92.8 nM | 100.3 ± 0.38% | 1480 nM | 28.1% | 37.7% | 40.7%
CCCOCc1cc(CN2CCN(c3cccc(Cl)c3)CC2)c(O)c2ncccc12 | 3790 nM | 99.61 ± 0.24% | 1500 nM | 6.74% | 41.8% | 52.5%
Oc1c(C(Nc2ccccn2)c2cccc(Oc3ccccc3)c2)ccc2cccnc12 (centres undefined) | 852 nM | 99.07 ± 0.26% | 1080 nM | 27.1% | 43.9% | 64.8%
O=C(NCCCN1CCC(N2CCCCC2)CC1)C1=Cc2cc(Br)ccc2OC1 | 348 nM | 88.9 ± 1.1% | 2690 nM | 27% | 57.9% | 66.7%
CCCc1c(C)nc2ccccc2c1O | 1010 nM | 87.69 ± 0.86% | 803 nM | 8.03% | 21.8% | 46.6%
COc1ccccc1NC1=C(N2CCCCC2)C(=O)c2ccccc2C1=O | 35.9 nM | 90.3 ± 3.8% | 4950 nM | 38.5% | 61.8% | 64.7%
CCOc1ccc(Nc2c3ccccc3nc3ccccc23)cc1 | 529 nM | 100.1 ± 0.26% | 884 nM | 45.1% | 58.5% | 68.8%
COc1cccc(Nc2nc(NCCO)c3ccccc3n2)c1 | 456 nM | 97.5 ± 1.6% | 1090 nM | 39.7% | 60.8% | 65.6%
O=C(NCC1Cc2cccc(-c3ccncc3)c2O1)c1csc2c1CCCC2 (centres undefined) | 4480 nM | 94.12 ± 0.48% | 845 nM | 9.1% | 14.2% | 20.6%

SMILES | EC50 growth inhibition [1] | % growth inhibition [2] | EC50 growth inhibition [3] | % inhibition of schizont-to-ring transition ([4]; 1 µM) | % inhibition of schizont-to-ring transition ([4]; 3 µM) | % inhibition of schizont-to-ring transition ([4]; 10 µM)
CC(C)(C)CC(C)(C)NCC(O)COc1ccc(Cl)cc1Cl (centres undefined) | 576 nM | 99.763 ± 0.02% | 2050 nM | 22.6% | 40.4% | 78.1%
Cc1ccc2nc(C)cc(Nc3cccc(C(F)(F)F)c3)c2c1 | 894 nM | 99.29 ± 0.18% | 465 nM | 2.29% | 31.8% | 62.9%
CCN(CC)c1cc(C)c2cc(NC(=O)c3cccc(OC)c3)ccc2n1 | 1300 nM | 98.73 ± 0.42% | 1810 nM | 25.4% | 31.7% | 56.8%
Cc1ccccc1OCCSc1nc2ccc(NC(=O)c3cccs3)cc2s1 | 3730 nM | 99.844 ± 0.082% | 1160 nM | 10.7% | 28.6% | 55.5%
Clc1cc(Br)ccc1-c1ccc(CNCC2CCNCC2)o1 | 763 nM | 99.53 ± 0.77% | 207 nM | 46% | 50.9% | 74.4%
COc1ccc(C2NCCc3c2[nH]c2ccccc32)cc1CN1CCN(c2ccc(F)cc2)CC1 (centres undefined) | 468 nM | 99.96 ± 0.41% | 4880 nM | 26.9% | 62.9% | 77.3%
COc1ccc(C(O)(CCC(C)C)C(CN2CCOCC2)c2ccc(Cl)cc2)cc1 (centres undefined) | 2090 nM | 100.9 ± 0.49% | 4870 nM | 8.88% | 11.2% | 32.8%
O=c1nc(C=Cc2ccc(Cl)cc2)oc2ccccc12 | 999 nM | 94.2 ± 2.2% | 32.4 nM | 16.8% | 24.1% | 56.2%
COc1ccc(Nc2nc(N/N=C/c3ccc(O)cc3)nc(Nc3ccc([N+](=O)[O-])cc3)n2)cc1 | 1100 nM | 100.2 ± 0.27% | 2630 nM | 20.8% | 44% | 63%
CCOC(=O)C1=CN(C)C=C(C(=O)OCC)C1c1cc(Br)c(OCC)c(OC)c1 | 1040 nM | 95.51 ± 0.24% | 2590 nM | 41.2% | 58.3% | 58.9%
Cc1ccc(NC(=O)Nc2cccc(Cl)c2)cc1F | 6570 nM | 98.51 ± 0.27% | 1620 nM | < 0% | 2.62% | 34.3%
Oc1ccc2ccccc2c1CNc1nc2ccccc2[nH]1 | 2930 nM | 95.1 ± 1.9% | 430 nM | 41.7% | 57.8% | 70.5%
FC(F)(F)c1ccc(Nc2nnnc3ccccc23)cc1 | 1020 nM | 83.5 ± 1.2% | 681 nM | < 0% | 4.32% | 52.7%
CCN(CC)CCCNc1nc(-c2ccc(Cl)cc2)nc2ccccc12 | 3520 nM | 80.8 ± 4.8% | 122 nM | 44.9% | 45.1% | 58.3%
O=c1nc(C=Cc2ccc(Br)cc2)oc2ccccc12 | 1770 nM | 99.06 ± 0.14% | 116 nM | 15.3% | 24.2% | 54%
CCOc1ccc(/C=C/c2nc(=O)c3ccccc3o2)cc1 | 657 nM | 97.94 ± 0.17% | 21.7 nM | 13.3% | 41.5% | 69.3%
COc1ccc2c(=O)cc(C(Cl)(Cl)Cl)oc2c1 | 2900 nM | 84.4 ± 9.2% | 1130 nM | 37.9% | 45% | 55.2%
